Results published in patent US20120028897A1, “METHODS AND COMPOSITIONS FOR THE TREATMENT OF FLUID RETENTION DISORDERS” (priority 2008, published 2012).

Experiments:
anesthetized rats = experiment: Glomerular filtration rate (FITC-inulin clearance) during and after iv peptide infusion; assay type: in vivo, rat
Procedure: All rats received a continuous intravenous infusion (10 μl/min/100 g BW) of isotonic saline containing FITC-labeled inulin for measurement of inulin clearance. Uncongugated FITC label and small inulin polymers were removed from the inulin solution by overnight dialysis against isotonic saline (SpectraPor 6 dialysis membrane, 1 kDa cutoff-limit, Spectrum Laboratories, Rancho Domingo, Calif.). Undissolved particulates were removed from the solution by filtration through a […] filter before each experiment (Steriflip, Millipore Inc. Billerica, Mass.). At least one hr was allowed for equilibration before the start of urine collections, at which point plasma inulin concentration had stabilized at an average value of 30±3 μg/ml.
Arterial blood pressure was measured with a pressure transducer connected to a cardiovascular analyzer (Model 50110, Stoelting Instruments Wood Dale, Ill.). Left renal blood flow was measured in some rats with a flow probe positioned on the left renal artery and connected to a blood flow monitor (model 1 PRB probe and model T420 monitor, Transonic Systems Inc. Ithaca N.Y.). Arterial pressure, heart rate, and renal blood flow were digitized with an A/D converter (Keithley instruments, Cleveland, Ohio Model KUSB 3100) for display and storage on a Windows-based personal computer using open layers data acquisition software (Dtx_Ez, Data Translation Inc, Marlboro, Mass.). Sodium and potassium concentrations in plasma and urine were measured by flame photometry (Model 943, Instrumentation Laboratory Co., Lexington Mass.). Glomerular filtration rate (GFR) was measured as the renal clearance rate of FITC-labeled inulin
After post-surgical equilibration (−60 min) and three 20 min control clearance periods, huUgnA or B was infused into the jugular vein at 10 μl/min over a 60 min period, followed by a return to isotonic saline for the remainder of the experiment. The infused doses of huUgnA were 12, 25, 50, 100, or 200 nmol/kg BW in a total of 38 rats; huUgnB doses were 9, 18, 35, 70, and 140 nmol/kg BW in 35 rats. A UgnA mimetic, E. coli STh (ST-core), was infused into a third group of 32 rats at doses of 17, 32, 66, 133, and 266 nmol/kg. Renal excretory responses to these infusions were slow to develop and long lasting, so clearance periods were continued for 2-3 hr after the termination of the peptide infusion. This protracted time course limited protocols to one dose of one peptide in each rat. A control group of 10 rats received isotonic saline at 10 μl/min in place of the peptide infusion, but was otherwise treated in the same way as the experimental groups.
This assay was based on the method described by Lorenz and Gruenstein. Urine samples were diluted with hepes-buffered saline (3, 5, 10, or 20 fold, based on urine flow) to neutralize the pH and bring the intensity of FITC emissions into detector range. Small volumes (3-5 μl) of diluted urine and undiluted plasma samples were drawn into constant bore capillary tubes (10 μl Microcap tubes, Drummond Scientific Company, Broomall Pa.) and sealed at each end with water-saturated mineral oil. FITC emission intensity was measured by imaging each sample at 10× magnification with an epifluorescence microscope (Axiovert S100TV, Carl Zeiss Inc. Thornwood, N.Y.) fitted with a CCD camera (Orca II, Hamamatsu Inc. Bridgewater, N.J.) controlled by Metamorph imaging software (Molecular Devices, Sunnyvale, Calif.). Fluorescence intensities were measured as mean pixel intensity obtained from a consistent central region of each sample during a 25 or 500 msec exposure for urine and plasma, respectively. Background intensities were measured in the same way using bladder urine and tail vein plasma collected from the same rat before the beginning of inulin infusion. Inulin concentrations in plasma and urine samples were calculated from a standard curve prepared from the infusion solution used in each experiment. […]

[1] = molecular target: T1, GC-C receptor, GC-C-expressing T84 cell line (Homo sapiens, UniProt P25092); experiment: T84 cell cyclic GMP bioassay; assay type: cell-based
T1 construct: measuring cyclic GMP synthesis in the GC-C-expressing T84 cell line; endogenous in cells; host or cells: T84 colon carcinoma cells
Procedure: Bioassay of huUgnA-like activity. The concentration of huUgnA-like bioactivity in infused peptide solutions and in urine collected during experiments was measured using a T84 cell-based bioassay, as described previously. T84 cells are a colon carcinoma cell line that increases cyclic GMP production in response to GC-C receptor agonists such as Ugn, Gn and ST core peptide. T84 cells were grown to near confluence in 12 well culture clusters, and then incubated with unknowns or standard concentrations of huUgnA. Standards or urine samples were diluted into bioassay medium (1 mM 3-isobutyl-1-methylxanthine, 0.03 mM phenol red, 137 mM NaCl, 5.4 mM KCl, 0.25 mM Na2HPO4, 0.44 mM KH2PO4, 1.3 mM CaCl2, 1.0 mM MgSO4, 4.2 mM NaHCO3, 10 mM HEPES buffered at pH 7.0) and the pH was adjusted to 7.0, if required, using the phenol red indicator dye as a guide. This pH adjustment was necessary, as it is well-established that the response of T84 cells to UGn is highly pH dependent. The broad spectrum phosphodiesterase inhibitor (isobutyl methylxanthine) was included to prevent degradation of cyclic GMP. After 30 min, the cells were lysed and cyclic GMP levels measured by radioimmunoassay (Biomedical Technologies Inc Stoughton Mass.). Standards and unknowns were assayed in triplicate. […]

Mice = experiment: Natriuretic response in mice; assay type: in vivo, mouse

T1 sequence (P25092 24-1073): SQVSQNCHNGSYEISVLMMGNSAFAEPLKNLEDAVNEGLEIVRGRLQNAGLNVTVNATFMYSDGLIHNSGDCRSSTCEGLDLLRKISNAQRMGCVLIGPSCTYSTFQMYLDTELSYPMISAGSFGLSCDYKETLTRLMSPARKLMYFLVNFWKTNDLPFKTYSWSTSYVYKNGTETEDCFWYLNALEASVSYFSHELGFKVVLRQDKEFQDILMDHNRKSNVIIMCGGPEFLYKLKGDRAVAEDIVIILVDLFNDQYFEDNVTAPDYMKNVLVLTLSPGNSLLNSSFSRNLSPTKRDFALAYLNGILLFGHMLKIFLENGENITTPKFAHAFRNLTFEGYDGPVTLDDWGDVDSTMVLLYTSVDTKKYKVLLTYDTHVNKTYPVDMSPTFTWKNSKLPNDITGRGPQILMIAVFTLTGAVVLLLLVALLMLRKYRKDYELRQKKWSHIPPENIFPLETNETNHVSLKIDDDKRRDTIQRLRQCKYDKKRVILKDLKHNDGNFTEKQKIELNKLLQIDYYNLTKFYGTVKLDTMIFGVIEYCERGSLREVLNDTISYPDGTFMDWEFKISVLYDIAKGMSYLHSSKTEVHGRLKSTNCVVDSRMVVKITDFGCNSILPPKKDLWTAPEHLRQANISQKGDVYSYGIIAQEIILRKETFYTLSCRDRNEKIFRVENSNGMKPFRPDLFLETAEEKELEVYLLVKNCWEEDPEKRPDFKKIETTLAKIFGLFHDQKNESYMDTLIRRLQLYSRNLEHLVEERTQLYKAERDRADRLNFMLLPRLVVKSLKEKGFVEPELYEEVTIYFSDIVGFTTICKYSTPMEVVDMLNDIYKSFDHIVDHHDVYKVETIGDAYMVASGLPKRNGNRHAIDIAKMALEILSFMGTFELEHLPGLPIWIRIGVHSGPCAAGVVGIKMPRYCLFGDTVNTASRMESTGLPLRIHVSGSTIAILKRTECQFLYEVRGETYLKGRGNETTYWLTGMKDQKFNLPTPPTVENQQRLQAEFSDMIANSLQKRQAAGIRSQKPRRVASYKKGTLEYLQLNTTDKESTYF

## CC(C)C[C@H](NC(=O)[C@@H]1CSSC[C@@H]2NC(=O)[C@H](CC(C)C)NC(=O)[C@H](CCC(=O)O)NC(=O)[C@@H](NC(=O)[C@H](CC(=O)O)NC(=O)[C@H](CC(=O)O)NC(=O)[C@@H](N)CC(N)=O)CSSC[C@H](NC(=O)[C@H](C)NC(=O)[C@H](C(C)C)NC(=O)[C@H](CC(N)=O)NC(=O)[C@H](C(C)C)NC2=O)C(=O)N[C@@H]([C@@H](C)O)C(=O)NCC(=O)N1)C(=O)O (single isomer, unassigned) [huUgnA, Asn Asp Asp Cys Glu Leu Cys Val Asn Val Ala Cys Thr Gly Cys Leu, reference compound]
Anesthetized rats; huUgnA 12 nmol, Infusion
  GFR (glomerular filtration rate): 869 ± 64 μl/min/g KW
Anesthetized rats; huUgnA 12 nmol, Post-infuse
  GFR (glomerular filtration rate): 923 ± 66 μl/min/g KW
Anesthetized rats; huUgnA 12 nmol, Pre-infuse
  GFR (glomerular filtration rate): 895 ± 51 μl/min/g KW
Anesthetized rats; huUgnA 25 nmol, Infusion
  GFR (glomerular filtration rate): 886 ± 66 μl/min/g KW
Anesthetized rats; huUgnA 25 nmol, Post-infuse
  GFR (glomerular filtration rate): 823 ± 49 μl/min/g KW
Anesthetized rats; huUgnA 25 nmol, Pre-infuse
  GFR (glomerular filtration rate): 820 ± 40 μl/min/g KW
Anesthetized rats; huUgnA 50 nmol, Infusion
  GFR (glomerular filtration rate): 817 ± 53 μl/min/g KW
Anesthetized rats; huUgnA 50 nmol, Post-infuse
  GFR (glomerular filtration rate): 869 ± 49 μl/min/g KW
Anesthetized rats; huUgnA 50 nmol, Pre-infuse
  GFR (glomerular filtration rate): 858 ± 52 μl/min/g KW
Anesthetized rats; huUgnA 100 nmol, Infusion
  GFR (glomerular filtration rate): 858 ± 55 μl/min/g KW
Anesthetized rats; huUgnA 100 nmol, Post-infuse
  GFR (glomerular filtration rate): 906 ± 38 μl/min/g KW
Anesthetized rats; huUgnA 100 nmol, Pre-infuse
  GFR (glomerular filtration rate): 807 ± 62 μl/min/g KW
Anesthetized rats; huUgnA 200 nmol, Infusion
  GFR (glomerular filtration rate): 827 ± 61 μl/min/g KW
Anesthetized rats; huUgnA 200 nmol, Post-infuse
  GFR (glomerular filtration rate): 849 ± 24 μl/min/g KW
Anesthetized rats; huUgnA 200 nmol, Pre-infuse
  GFR (glomerular filtration rate): 857 ± 43 μl/min/g KW

## CC(C)C[C@H](NC(=O)[C@@H]1CSSC[C@@H]2NC(=O)[C@H](CC(C)C)NC(=O)[C@H](CCC(=O)O)NC(=O)[C@@H](NC(=O)[C@H](CC(=O)O)NC(=O)[C@H](CC(=O)O)NC(=O)[C@@H](N)CC(N)=O)CSSC[C@H](NC(=O)[C@H](C)NC(=O)[C@H](C(C)C)NC(=O)[C@H](CC(N)=O)NC(=O)[C@H](C(C)C)NC2=O)C(=O)N[C@@H]([C@@H](C)O)C(=O)NCC(=O)N1)C(=O)O (single isomer, unassigned) [huUgnB, Asn Asp Asp Cys Glu Leu Cys Val Asn Val Ala Cys Thr Gly Cys Leu]
[1]; 25 nM huUgnA with 180 nM huUgnB (FIG. 2B)
  T84 cell cGMP response on co-application of huUgnA and B: not different from those evoked by huUgnA alone
[1]; GC-C-expressing T84 cell line
  potency in activating cyclic GMP synthesis, fold less potent than the A isoform: more than 100 fold
Anesthetized rats; huUgnB 9 nmol, Infusion
  GFR (glomerular filtration rate): 918 ± 66 μl/min/g KW
Anesthetized rats; huUgnB 9 nmol, Post-infuse
  GFR (glomerular filtration rate): 947 ± 60 μl/min/g KW
Anesthetized rats; huUgnB 9 nmol, Pre-infuse
  GFR (glomerular filtration rate): 921 ± 57 μl/min/g KW
Anesthetized rats; huUgnB 18 nmol, Infusion
  GFR (glomerular filtration rate): 936 ± 76 μl/min/g KW
Anesthetized rats; huUgnB 18 nmol, Post-infuse
  GFR (glomerular filtration rate): 877 ± 80 μl/min/g KW
Anesthetized rats; huUgnB 18 nmol, Pre-infuse
  GFR (glomerular filtration rate): 890 ± 55 μl/min/g KW
Anesthetized rats; huUgnB 35 nmol, Infusion
  GFR (glomerular filtration rate): 830 ± 48 μl/min/g KW
Anesthetized rats; huUgnB 35 nmol, Post-infuse
  GFR (glomerular filtration rate): 870 ± 53 μl/min/g KW
Anesthetized rats; huUgnB 35 nmol, Pre-infuse
  GFR (glomerular filtration rate): 866 ± 64 μl/min/g KW
Anesthetized rats; huUgnB 70 nmol, Infusion
  GFR (glomerular filtration rate): 867 ± 86 μl/min/g KW
Anesthetized rats; huUgnB 70 nmol, Post-infuse
  GFR (glomerular filtration rate): 876 ± 26 μl/min/g KW
Anesthetized rats; huUgnB 70 nmol, Pre-infuse
  GFR (glomerular filtration rate): 883 ± 95 μl/min/g KW
Anesthetized rats; huUgnB 140 nmol, Infusion
  GFR (glomerular filtration rate): 788 ± 67 μl/min/g KW
Anesthetized rats; huUgnB 140 nmol, Post-infuse
  GFR (glomerular filtration rate): 924 ± 46 μl/min/g KW
Anesthetized rats; huUgnB 140 nmol, Pre-infuse
  GFR (glomerular filtration rate): 858 ± 86 μl/min/g KW
Mice
  natriuretic response: exhibit a natriuretic response
